# Experimental data published in patent US20240108602A1, “TREATMENT OF MENTAL DISORDERS” (GH Research Ireland Limited, priority 2022, published 2024).
# Tests used:
# [1] = 5-MeO-DMT, 5-MIAA and bufotenine in urine, serum and breastmilk of a lactating PPD patient, LC-MS/MS
# Method: The second patients was lactating, and, per the clinical trial protocol, breastmilk samples were collected pre-dosing and at multiple timepoints after administration of the last dose. […] Similar analyses were carried out on patient serum and urine samples.
# [2] = Pharmacokinetics of 5-MeO-DMT and bufotenine after inhalation, LC-MS/MS; assay type: in vivo, human
# Method: Blood samples were obtained at 1; 2; 4; 7; 10; 15; 20; 30; 45 min and 1; 1.5; 2; 3; 4 hours after administration.
# PK parameters were generated by algebraic analysis of the concentration versus time plots for each individual. The analysis was carried out using the software Phoenix WinNonlin 6.3.
# [3] = tested on: Escherichia coli (WP2 uvrA pKM101); assay: Bacterial mutation test, Escherichia coli; assay type: cell-based; conditions: up to 5000 pg/plate, with and without S-9
# Text: These conditions included treatments at concentrations up to […] (the maximum recommended concentration according to current regulatory guidelines), in the absence and in the presence of a rat liver metabolic activation system (S-9).
# [4] = 1.0 hrs after last dose (6 mg then 12 mg 5-MeO-DMT)
smiles,measurement,setting,value
COc1ccc2[nH]cc(CCN(C)C)c2c1 [5-MeO-DMT],Breastmilk concentration,[1]; [4],2167.0 pg/mL
same,Serum concentration,[1]; [4],0.1329 ng/mL
same,Breastmilk concentration,[1]; 2.5 hrs after last dose,560.6 pg/mL
same,Serum concentration,[1]; 2.5 hrs after last dose,BLQ (BLQ: Below limit of quantification. The lower limit of quantification is 25 pg/ml for both 5-MeO-DMT and 5-MIAA in both serum and breastmilk; it is 25 pg/ml in urine for 5-MeO-DMT and 250 pg/ml for 5-MIAA in urine.)
same,Urine concentration,[1]; 2.5 hrs after last dose,566.7 pg/mL
same,Breastmilk concentration,[1]; 8.5 hrs after last dose,42.1 pg/mL
same,Urine concentration,[1]; 8.5 hrs after last dose,BLQ (BLQ: Below limit of quantification. The lower limit of quantification is 25 pg/ml for both 5-MeO-DMT and 5-MIAA in both serum and breastmilk; it is 25 pg/ml in urine for 5-MeO-DMT and 250 pg/ml for 5-MIAA in urine.)
same,Breastmilk concentration,[1]; 24.0 hrs after last dose,did not detect any 5-MeO-DMT and BLG
same,Serum concentration,[1]; 24.0 hrs after last dose,BLQ (BLQ: Below limit of quantification. The lower limit of quantification is 25 pg/ml for both 5-MeO-DMT and 5-MIAA in both serum and breastmilk; it is 25 pg/ml in urine for 5-MeO-DMT and 250 pg/ml for 5-MIAA in urine.)
same,Urine concentration,[1]; 24.0 hrs after last dose,BLQ (BLQ: Below limit of quantification. The lower limit of quantification is 25 pg/ml for both 5-MeO-DMT and 5-MIAA in both serum and breastmilk; it is 25 pg/ml in urine for 5-MeO-DMT and 250 pg/ml for 5-MIAA in urine.)
same,Breastmilk concentration,[1]; 120.0 hrs after last dose,BLQ (BLQ: Below limit of quantification. The lower limit of quantification is 25 pg/ml for both 5-MeO-DMT and 5-MIAA in both serum and breastmilk; it is 25 pg/ml in urine for 5-MeO-DMT and 250 pg/ml for 5-MIAA in urine.)
same,Serum concentration,[1]; 120.0 hrs after last dose,BLQ (BLQ: Below limit of quantification. The lower limit of quantification is 25 pg/ml for both 5-MeO-DMT and 5-MIAA in both serum and breastmilk; it is 25 pg/ml in urine for 5-MeO-DMT and 250 pg/ml for 5-MIAA in urine.)
same,Urine concentration,[1]; 120.0 hrs after last dose,BLQ (BLQ: Below limit of quantification. The lower limit of quantification is 25 pg/ml for both 5-MeO-DMT and 5-MIAA in both serum and breastmilk; it is 25 pg/ml in urine for 5-MeO-DMT and 250 pg/ml for 5-MIAA in urine.)
same,Breastmilk concentration,[1]; −24.0 hrs (pre-dosing),BLQ (BLQ: Below limit of quantification. The lower limit of quantification is 25 pg/ml for both 5-MeO-DMT and 5-MIAA in both serum and breastmilk; it is 25 pg/ml in urine for 5-MeO-DMT and 250 pg/ml for 5-MIAA in urine.)
same,Serum concentration,[1]; −24.0 hrs (pre-dosing),BLQ (BLQ: Below limit of quantification. The lower limit of quantification is 25 pg/ml for both 5-MeO-DMT and 5-MIAA in both serum and breastmilk; it is 25 pg/ml in urine for 5-MeO-DMT and 250 pg/ml for 5-MIAA in urine.)
same,Urine concentration,[1]; −24.0 hrs (pre-dosing),BLQ (BLQ: Below limit of quantification. The lower limit of quantification is 25 pg/ml for both 5-MeO-DMT and 5-MIAA in both serum and breastmilk; it is 25 pg/ml in urine for 5-MeO-DMT and 250 pg/ml for 5-MIAA in urine.)
same,plasma concentration as % of Cmax,"[2]; 10 minutes after administration, 6-18 mg",≤ 10%
same,plasma concentration as % of Cmax,"[2]; after 2 hours, 6-18 mg",≤ 1%
same,detectability in plasma,"[2]; after 3 hours, 6-18 mg",no longer detectable
same,"5-MeO-DMT still present, % Cmax","[2]; after about 1 hour, healthy volunteers and PPD patients",less than 10%
same,accumulation upon repeated administration,[2]; repeat within 1 to 4 hours,No accumulation
same,induction of mutation,[3],did not induce mutation
